Legend:
[1] = test system: Microtubule-associated protein 2 (MAP2); assay: Ex.8 neuroprotective HIE rat model: MAP2 staining; format: in vivo; details: 10 mg/kg/day E4
Experimental: Newborn rat pups were assigned to one of the following 14 groups from postnatal day 4 (FIG. 23(A)): Sham group (n=12), Vehicle group (n=17), 5 mg/kg/day E4 (n=13), 10 mg/kg/day E4 (n=10), 5 mg/kg/day E4+1.6 mg/kg/day PROG (n=11), 10 mg/kg/day E4+1.6 mg/kg/day PROG (n=11), 5 mg/kg/day E4+16 mg/kg/day PROG (n=11), 10 mg/kg/day E4+16 mg/kg/day PROG (n=11), 5 mg/kg/day E4+136 ng//kg/day E2 (n=11), 10 mg/kg/day E4+136 ng/kg/day E2 (n=11), 5 mg/kg/day E4+1.6 mg/kg/day PROG+136 ng/kg/day (n=13) E2, 10 mg/kg/day E4+1.6 mg/kg/day PROG+136 ng/kg/day E2 (n=16), 5 mg/kg/day E4+16 mg/kg/day PROG+136 ng/kg/day E2 (n=11), 10 mg/kg/day E4+16 mg/kg/day PROG+136 ng/kg/day groups (n=13). Intraperitoneal injections of the pups from study groups were performed from postnatal day 4 to postnatal day 7 inclusively. […]
The brain sections were processed for immunohistochemical detection of neuronal cytoskeletal disruption. […] Samples were analyzed with the aid of an image scanner (Nanozoomer Virtual Microscopy, Hamamatsu, Tokyo, Japan) and the ImageJ software (NIH, US). The positive areas in the ipsilateral and contralateral hemispheres were measured. The ratio of the MAP2 positive areas was calculated as the MAP2 positive area of the ipsilateral hemisphere divided by the MAP2 positive area of the contralateral hemisphere. […]

doublecortin (DCX) = assay: Ex.4 therapeutic HIE rat model: doublecortin staining; format: in vivo
Experimental: The sections were heated in 10 mmol/L citrate buffer (pH 6.0) at 100° C. for 10 minutes. Endogenous peroxidase activity was blocked with 3% hydrogen peroxide for 10 minutes and after a second blocking with 5% normal goat serum, the sections were incubated with anti-doublecortin (DCX) antibody, diluted 1:1000 (rabbit polyclonal antibody; Abcam, Cambridge, UK) and anti-vascular endothelial growth factor (VEGF) antibody, diluted 1:100 (mouse monoclonal antibody; Abcam, Cambridge, UK) overnight at 4° C. After rinsing, Alexa Fluor® goat anti-rabbit, diluted 1:1000 and Alexa Fluor® goat anti-mouse, diluted 1:1000 (Invitrogen Inc., Ghent, Belgium) were added and sections were incubated 1 h at room temperature. Mounting medium containing 4′,6-diamidino-2-phenylindole (DAPI) for fluorescent studies was used (Vector Laboratories). Samples were analyzed with the aid of a microscope (Olympus Vanox AHBT3, Olympus), and the ImageJ software (NIH). The percentage of positively stained cells was quantified as a sum of positively stained either DCX or VEGF cells divided by the total number of DAPI positive cells expressed in percentage.
To study the therapeutic effect of estetrol, newborn rat pups were assigned to one of the following 6 groups at postnatal day 7: sham group (n=29), vehicle group (n=20), 1 mg/kg E4 group (n=16), 5 mg/kg E4 group (n=19), 10 mg/kg day E4 (n=17) and 50 mg/kg day E4 group (n=15). At postnatal day 7 animals were anesthetized with isoflurane (induction, 3.0%; maintenance, 1.5%), and the rat pups from vehicle and E4 groups passed through surgery encompassing left common carotid artery double ligation and cut. After surgery, the pups were returned to their dams and allowed to recover for 1 hour. The pups were then placed in a humidified hypoxic in vivo cabinet (CoyLab). Hypoxia was produced by the inhalation of 11%-8% of oxygen balanced by nitrogen at decreased concentration of oxygen for 20 minutes, followed by inhalation of 8% oxygen and 92% nitrogen at constant concentration for 35 minutes. All the manipulations were performed at 37° C.
Upon retrieval from the hypoxia chamber the rat pups were injected intraperitoneally either by vehicle (vehicle group) or by E4 (1 mg/kg, 5 mg/kg, 10 mg/kg or 50 mg/kg) in accordance to the group assignment. The animals from the sham group went through similar procedures but proceeded neither left common carotid artery ligation and cut followed by hypoxia nor vehicle or estetrol administration. Rat pups recovered with their dams until being sacrificed at postnatal day 14.

Structure (SMILES): C[C@]12CC[C@@H]3c4ccc(O)cc4CC[C@H]3[C@@H]1[C@@H](O)[C@@H](O)[C@@H]2O [E4, 1,3,5(10)-estratrien-3,15α,16α,17β-tetrol]
- ratio of MAP2-positive area (ipsilateral/contralateral) [1]: 0.97±0.01
- percentage of DCX positively stained cells (doublecortin (DCX); 5 mg/kg E4 single ip dose after HI, cortex): 45.2±3.339%
- percentage of DCX positively stained cells (doublecortin (DCX); 10 mg/kg E4 single ip dose after HI, CA1): 37.1±3.84
- percentage of DCX positively stained cells (doublecortin (DCX); 10 mg/kg E4 single ip dose after HI, CA2/CA3): 42.5±5.986%
- percentage of DCX positively stained cells (doublecortin (DCX); 10 mg/kg E4 single ip dose after HI, cortex): 49.4±4.949%
- percentage of DCX positively stained cells (doublecortin (DCX); 50 mg/kg E4 single ip dose after HI, CA1): 37.3±4.784%
- percentage of DCX positively stained cells (doublecortin (DCX); 50 mg/kg E4 single ip dose after HI, cortex): 49.6±3.11%
- DCX staining (doublecortin (DCX); E4 1, 5, 10, 50 mg/kg single ip dose after HI, DG, among study groups): neither DCX nor VEGF staining was significantly different

From US9808470B2, “Estrogenic components for use in the treatment of neurological disorders” (UNIVERSITE DE LIEGE, priority 2012, dated 2017)
